Patent US9771336B2, “Tetrazole based corrosion inhibitors” (Ecolab USA Inc., priority 2013, dated 2017)
Read-outs that look alike come from different tables or passages of the source.

Columns and labels:
[1] = Copper corrosion rate with and without bleach in a cooling water environment
[2] = Solubility (turbidity) of 2% solutions at various pH; format: physicochemical; settings: 2% solution in RO water
[3] = Pimephales promelas 96-Hour Definitive Toxicity Test; format: in vivo; settings: Pimephales promelas, in vivo, other: waterborne exposure in test solution; composition of BDTZ
Method: (§1) A composition of the invention including a BDTZ tetrazole component was evaluated using the Pimephales promelas 96-Hour Definitive Toxicity Test. Pimephales promelas used to initiate this test were obtained from in-house cultures and were 1 to 14 days old at test initiation. Test organisms were maintained in 100 percent control water (reconstituted moderately hard water) prior to test initiation. The 96-Hour Definitive Test was conducted using 300 to 500 milliliter (mL) disposable polypropylene containers containing 250 ml of control water or appropriate test solution. Ten test organisms were randomly introduced into each test chamber with two replicate chambers per treatment. Each Pimephales promelas test chamber was fed 0.1 mL of a concentrated suspension of less than 24-hour old live brine shrimp nauplii (Artemia sp.) several hours prior to the 48-hour testing period.
(§2) At the 48-hour testing period, test solutions were renewed by replacing approximately 90 percent of the old solution with fresh control water or appropriate test solution. Prior to renewal of test solutions, uneaten and dead brine shrimp, along with other debris, were removed from the bottom of the test chambers. Organism survival was determined daily by enumerating live Pimephales promelas in each test chamber. Survival was defined as any body movement after gentle prodding.
(§3) The test was conducted at a temperature of 20±1° C. under fluorescent lighting with a photoperiod of 16 hours light and 8 hours dark. Water quality measurements were performed on all control and test solutions prior to test initiation and on selected treatments daily thereafter.
(§4) Following termination of the 96-Hour Definitive Test, No Observed Effect Concentration (NOEC) and a 96-hour LC50 with corresponding 95 percent confidence interval were calculated, where possible. The NOEC value was determined using the statistically appropriate method. The LC50 value estimate was determined by using one of the following statistical methods: graphical, Spearman-Karber, Trimmed Spearman-Karber, or Probit. The method selected for reporting test results was determined by the characteristics of the data; that is, the presence or absence of 0 and 100 percent mortality and the number of concentrations in which mortalities between 0 and 100 percent occurred. All statistical analyses were performed using the CETIS™ Version 1.8.5.4 software program.
(§5) The reference toxicant, sodium chloride, was used to monitor the sensitivity of the test organisms and the precision of the testing procedure. Acute reference toxicant tests are performed at least monthly and the resulting LC50 values are plotted to determine if the results are within prescribed limits.

[4] = tested on: Pimephales promelas; experiment: as above; format: in vivo; settings: 96-hour test
Method: as §1, §2, §3, §4, §5

[5] = Mild steel corrosion rate (interaction with Cu2+); settings: FIG. 12; compared with no HDTZ
Excerpt: Tetrazoles disclosed herein have a positive effect on mild steel corrosion. […] The proposed mechanism of action is suspected to be indirect: the likely interpretation is that HDTZ inactivates Cu^2+ in solution preventing the occurrence of galvanic cells on the coupon surface (lower corrosion rate), which could grow with time (stabilization of the corrosion rate).

[6] = 3 ppm inhibitor, synthetic cooling water, 38° C., three hours
[7] = average copper corrosion rate, inhibitor concentration 5 ppm, with bleach
[8] = average copper corrosion rate, inhibitor concentration 5 ppm, without bleach

## C(CCc1nnn[nH]1)CCc1nnn[nH]1 [PeDTZ, 1,5-di(1H-tetrazol-5-yl)pentane]
[1]
  Corrosion Rate (mpy) with Bleach (1 FRC): 0.145 mpy
  Corrosion Rate (mpy) without Bleach: 0.0012 mpy

## Cc1ccc2[nH]nnc2c1 [TT, 5-methyl-1H-benzotriazole, reference compound]
[2]
  pH above which soluble: above 11.5
  pH to get a clear solution: 12.0
[1]; [7]
  Corrosion Rate (mpy) with Bleach (1 FRC): 0.0995 mpy
[1]; [8]
  Corrosion Rate (mpy) without Bleach: 0.0214 mpy

## C(CCCc1nnn[nH]1)CCCc1nnn[nH]1 [HeDTZ, 1,7-di(1H-tetrazol-5-yl)heptane]
[1]; [7]
  Corrosion Rate (mpy) with Bleach (1 FRC): 0.027 mpy
[1]; [8]
  Corrosion Rate (mpy) without Bleach: 0.009 mpy
other
  melting point: 144.19 °C

## Cc1cc2nn[nH]c2cc1Cl [CITT, 5-methyl-6-chloro-1H-benzotriazole, reference compound]
[1]; [7]
  Corrosion Rate (mpy) with Bleach (1 FRC): 0.0057 mpy
[1]; [8]
  Corrosion Rate (mpy) without Bleach: 0.0028 mpy

## C(CCc1nnn[nH]1)Cc1nnn[nH]1 [BDTZ, 1,4-di(1H-tetrazol-5-yl)butane]
[2]; turbidity meter
  pH above which the solution remained clear: > 5.6
[3]
  LC50 at 96 h: > 10000 µg/mL
[4]; composition of BDTZ, 625 mg/L as nominal
  Survival (%): 100%
[4]; composition of BDTZ, 1,250 mg/L as nominal
  Survival (%): 100%
[4]; composition of BDTZ, 2,500 mg/L as nominal
  Survival (%): 100%
[4]; composition of BDTZ, 5,000 mg/L as nominal
  Survival (%): 100%
[4]; composition of BDTZ, 10,000 mg/L as nominal
  Survival (%): 100%
[4]; composition of BDTZ
  NOEC: 10,000 mg/L
[1]; [7]
  Corrosion Rate (mpy) with Bleach (1 FRC): 0.0841 mpy
[1]; [8]
  Corrosion Rate (mpy) without Bleach: 0.0088 mpy

## C(CCCc1nnn[nH]1)CCc1nnn[nH]1 [HDTZ, 1,6-di(1H-tetrazol-5-yl)hexane]
[1]; [7]
  Corrosion Rate (mpy) with Bleach (1 FRC): 0.0204 mpy
[1]; [8]
  Corrosion Rate (mpy) without Bleach: 0.005 mpy
[5]
  effect on mild steel corrosion rate: stabilize the corrosion rate
other
  melting point: 183.75 °C

## CCCCc1ccc2[nH]nnc2c1 [BBT, 5-butyl-1H-benzotriazole, reference compound]
[1]; [7]
  Corrosion Rate (mpy) with Bleach (1 FRC): 0.0189 mpy
[1]; [8]
  Corrosion Rate (mpy) without Bleach: 0.0024 mpy

## c1ccc2[nH]nnc2c1 [BZT, 1H-benzotriazole, reference compound]
[1]; [7]
  Corrosion Rate (mpy) with Bleach (1 FRC): 0.1386 mpy
[1]; [8]
  Corrosion Rate (mpy) without Bleach: 0.0032 mpy

## C(CCCCc1nnn[nH]1)CCCc1nnn[nH]1 [ODTZ, 1,8-di(1H-tetrazol-5-yl)octane]
[1]
  Corrosion Rate (mpy) with Bleach (1 FRC): 0.032 mpy
  Corrosion Rate (mpy) without Bleach: 0.026 mpy
[6]; 1 ppm ActiBrom
  % loss of inhibitor: 0.0%
[6]; 1 ppm Bleach
  % loss of inhibitor: 2.6%
[6]; 1 ppm STABREX
  % loss of inhibitor: 1.6%
[6]; 5 ppm ActiBrom
  % loss of inhibitor: 1.3%
[6]; 5 ppm Bleach
  % loss of inhibitor: 2.6%
[6]; 5 ppm STABREX
  % loss of inhibitor: 2.6%

## hydrogenated tolyltriazole [HTT, reference compound]
[1]; [7]
  Corrosion Rate (mpy) with Bleach (1 FRC): 0.0187 mpy
[1]; [8]
  Corrosion Rate (mpy) without Bleach: 0.0051 mpy
